One test has as its system isolated rat hearts. As to the kind of experiment: Isolated perfused rat heart (Langendorff), 20 min global ischemia and 120 min reperfusion after 24 h pretreatment. Particulars: FIG. 7, pretreated 24 h prior to ischemia, compound-D 2.0 mg/kg and/or naltrexone 3 mg/kg, 20 min ischemia, control about 27%. The test is classed as in vivo. How it is done:
Compound-D SEQ ID NO:1, at a dose of 2 mg/kg and solubilized as described above, was administered by tail vein injection into rats weighing between about 350-400 g (number of animals (n)=6). Control rats (n=6) were injected in the same manner with an equal volume of 0.9% NaCI. After 24 h, the hearts from both treated and control animals were excised and perfused in a modified Langendorff perfusion apparatus at 37° C. using oxygenated Krebs-Henseleit buffer as the perfusate, as known to one skilled in the art. Coronary perfusion pressure was maintained at 70 mm Hg by regulating coronary flow. All hearts were paced at […] (300 beats per minute, bpm) except during ischemia. A saline-filled balloon was inserted in the left ventricle to measure developed pressure (DP) and end-diastolic pressure (EDP) in mm Hg. After 15 min equilibration, both groups were subjected to 20 min zero-flow global ischemia, and then were reperfused for 120 min.
Left ventricles were isolated and divided into three segments along their short axis, stained with triphenyltetrazolium chloride, and stored in formalin. Infarct size was measured on digitized images and expressed as a per centage of myocardium. Data were expressed as mean plus or minus standard error of the mean (±SEM) and were analyze using a […] Student's t-Test. Confidence limits were established at 95%. […]

A further test deals with mouse vas deferens. As to the kind of experiment: Mouse vas deferens (m.v.d.) contractility assay. The note with it: FIG. 8; 6000 nM glibenclamide with 1000 nM compound-D. As to the method: Glibenclamide, a KATP channel blocker, blocked the inhibition of contraction of mouse vas deferens induced by compound-D SEQ ID NO:1. With reference to FIG. 8, the effect of administration of 1000 nM compound-D SEQ ID NO:1 alone (open bar) versus 1000 nM compound-D SEQ ID NO:1 with 6000 nM glibenclamide (hatched bar) on contractility of mouse vas deferens (m.v.d.) (n=6) is shown. […] (n=2).

With `O=C1CC[C@@]2(O)[C@H]3Cc4ccc(O)c5c4[C@@]2(CCN3CC2CC2)[C@H]1O5` [naltrexone], the infarct size entry in the test with isolated rat hearts is listed as “about 14.5%”.

In the case of `COc1ccc(Cl)cc1C(=O)NCCc1ccc(S(=O)(=O)NC(=O)NC2CCCCC2)cc1` [Glibenclamide], the “effect of glibenclamide on compound-D suppressed m.v.d. contractions” value with mouse vas deferens was “restored m.v.d. contractions”.

Values taken from patent US6316411A, “Protection against ischemia and reperfusion injury” (University of Kentucky Research Foundation, priority 2000, dated 2001).
